{
  "source": "patent US7851474B2",
  "about": "“Dipiperazinyl ketones and related analogues” (Neurogen Corporation, priority 2005, dated 2010)",
  "data": [
    {"target": "T1, chimeric human H3 receptor (Homo sapiens, UniProt Q9Y5N1, E19D)", "T1 construct": "made in house; host or cells: Sf9 insect cells (baculovirus infection); P2 membrane preparation", "T1 sequence (Q9Y5N1 with tags, fused parts or gaps E19D)": "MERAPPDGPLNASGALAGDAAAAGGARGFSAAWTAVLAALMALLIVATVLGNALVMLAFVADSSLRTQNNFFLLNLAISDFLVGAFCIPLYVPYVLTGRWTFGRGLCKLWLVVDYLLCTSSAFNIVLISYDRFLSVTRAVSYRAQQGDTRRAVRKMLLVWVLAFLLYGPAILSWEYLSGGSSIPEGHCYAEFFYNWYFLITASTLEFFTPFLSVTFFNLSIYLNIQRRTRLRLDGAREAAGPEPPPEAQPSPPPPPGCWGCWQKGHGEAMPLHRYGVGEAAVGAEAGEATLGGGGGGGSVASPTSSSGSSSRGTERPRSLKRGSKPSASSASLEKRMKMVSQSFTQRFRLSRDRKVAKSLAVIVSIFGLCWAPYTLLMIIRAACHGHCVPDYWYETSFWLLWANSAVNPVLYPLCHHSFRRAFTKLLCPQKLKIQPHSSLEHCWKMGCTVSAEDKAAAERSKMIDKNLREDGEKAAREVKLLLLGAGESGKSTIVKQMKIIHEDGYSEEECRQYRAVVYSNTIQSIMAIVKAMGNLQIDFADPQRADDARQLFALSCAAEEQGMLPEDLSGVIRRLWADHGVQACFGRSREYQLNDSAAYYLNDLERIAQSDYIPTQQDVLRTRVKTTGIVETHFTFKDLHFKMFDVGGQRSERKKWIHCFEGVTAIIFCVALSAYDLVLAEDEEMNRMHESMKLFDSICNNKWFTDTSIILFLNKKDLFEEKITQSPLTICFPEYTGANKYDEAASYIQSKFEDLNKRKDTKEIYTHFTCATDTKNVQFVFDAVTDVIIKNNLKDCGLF", "experiment": "Chimeric human H3 receptor GTP binding assay (agonist-stimulated GTP-gamma35S binding, Example 7)", "assay_type": "biochemical", "conditions": "not given", "from_the_text": "(§1) This Example illustrates a representative assay for evaluating agonist-stimulated GTP-gamma^35S binding (“GTP binding”) activity. […] This agonist-stimulated GTP binding activity can also be used to detect partial agonism mediated by antagonist compounds. A compound analyzed in this assay is referred to herein as a “test compound.”\n(§2) Four independent baculoviral stocks (one directing the expression of the chimeric human H3 receptor and three directing the expression of each of the three subunits of a heterotrimeric G-protein) are used to infect a culture of Sf9 cells as described above. P2 membranes are prepared as described above, and agonist-stimulated GTP binding on the P2 membranes is assessed using histamine (Sigma Chemical Co., St. Louis, Mo.) as agonist in order to ascertain that the receptor/G-protein-alpha-beta-gamma combination(s) yield a functional response as measured by GTP binding. P2 membranes are resuspended by Dounce homogenization (tight pestle) in GTP binding assay buffer (50 mM Tris pH 7.4, 120 mM NaCl, 5 mM MgCl2, 2 mM EGTA, 1 mg/ml BSA, 0.2 mg/ml bacitracin, 0.02 mg/ml aprotinin, 0.01 mg/ml saponin, 10 μM GDP) and added to assay tubes at a concentration of 35 μg protein/reaction tube. […] In competition experiments, non-radiolabeled test compounds are added to separate reactions at concentrations ranging from 10^−10 M to 10^−6 M along with 1 μM histamine to yield a final volume of 0.20 ml.\n(§3) Neutral antagonists are antagonists that are substantially free of inherent agonist activity, and include those test compounds that reduce the histamine-stimulated GTP binding activity towards, but not below, baseline levels. In contrast, in the absence of added histamine, inverse agonists reduce the GTP binding activity of the receptor-containing membranes below baseline.\n(§4) After a 60-min incubation at room temperature, reactions are terminated by vacuum filtration over WHATMAN GF/C filters (pre-soaked in wash buffer, 0.1% BSA) followed by washing with ice-cold wash buffer (50 mM Tris pH 7.4, 120 mM NaCl). The amount of receptor-bound (and thereby membrane-bound) GTP-gamma^35S is determined by measuring the filter-bound radioactivity, preferably by liquid scintillation spectrometry of the washed filters. […] Data is expressed as percent above basal (baseline). The results of GTP binding experiments are analyzed using SIGMAPLOT software (SPSS Inc., Chicago, Ill.).\n(§5) IC50 values are calculated by non-linear regression analysis of dose-response curves using Kaleidograph (Synergy Software, Reading, Pa.).", "units": {"Ki": "µM"}, "values": [
      {"smiles": "CCN1CCN(C(=O)CN2CCN(c3ccc(Cl)cc3)CC2)CC1", "note": "[Compound 359, 1-(4-chlorophenyl)-4-[2-(4-ethylpiperazin-1-yl)-2-oxoethyl]piperazine]", "Ki": "< 1"}
    ]},
    {"target": "T1, chimeric human H3 receptor", "experiment": "Chimeric human H3 receptor GTP binding assay (agonist-stimulated GTP-gamma35S binding, Example 7)", "assay_type": "biochemical", "conditions": "assay of Example 7; symbol * in column headed Ki of Table II; read-out: Ki", "from_the_text": "as §1, §2, §3, §4, §5", "units": {"Ki": "µM"}, "values": [
      {"smiles": "O=C(CN1CCN(c2ccc(-c3ccc(Cl)c(F)c3)cc2)CC1)N1CCN(C2CCC2)CC1", "note": "[Compound 343, 1-(4′-chloro-3′-fluorobiphenyl-4-yl)-4-[2-(4-cyclobutylpiperazin-1-yl)-2-oxoethyl]piperazine]", "Ki": "< 1"},
      {"smiles": "COc1cc(N2CCN(CC(=O)N3CCN(C4CCC4)CC3)CC2)ccc1Cl", "note": "[Compound 344, 1-(4-chloro-3-methoxyphenyl)-4-[2-(4-cyclobutylpiperazin-1-yl)-2-oxoethyl]piperazine]", "Ki": "< 1"},
      {"smiles": "COc1cc(N2CCN(CC(=O)N3CCN(C4CCCCC4)CC3)CC2)ccc1Cl", "note": "[Compound 345, 1-(4-chloro-3-methoxyphenyl)-4-[2-(4-cyclohexylpiperazin-1-yl)-2-oxoethyl]piperazine]", "Ki": "< 1"},
      {"smiles": "COc1cc(N2CCN(CC(=O)N3CCN(C4CCCC4)CC3)CC2)ccc1Cl", "note": "[Compound 346, 1-(4-chloro-3-methoxyphenyl)-4-[2-(4-cyclopentylpiperazin-1-yl)-2-oxoethyl]piperazine]", "Ki": "< 1"},
      {"smiles": "COc1cc(N2CCN(CC(=O)N3CCN(C(C)C)CC3)CC2)ccc1Cl", "note": "[Compound 347, 1-(4-chloro-3-methoxyphenyl)-4-[2-(4-isopropylpiperazin-1-yl)-2-oxoethyl]piperazine]", "Ki": "< 1"},
      {"smiles": "Cc1cc(N2CCN(CC(=O)N3CCN(C4CCC4)CC3)CC2)ccc1Cl", "note": "[Compound 349, 1-(4-chloro-3-methylphenyl)-4-[2-(4-cyclobutylpiperazin-1-yl)-2-oxoethyl]piperazine]", "Ki": "< 1"},
      {"smiles": "Cc1cc(N2CCN(CC(=O)N3CCN(C4CCCCC4)CC3)CC2)ccc1Cl", "note": "[Compound 350, 1-(4-chloro-3-methylphenyl)-4-[2-(4-cyclohexylpiperazin-1-yl)-2-oxoethyl]piperazine]", "Ki": "< 1"},
      {"smiles": "Cc1cc(N2CCN(CC(=O)N3CCN(C4CCCC4)CC3)CC2)ccc1Cl", "note": "[Compound 351, 1-(4-chloro-3-methylphenyl)-4-[2-(4-cyclopentylpiperazin-1-yl)-2-oxoethyl]piperazine]", "Ki": "< 1"},
      {"smiles": "CCN1CCN(C(=O)CN2CCN(c3ccc(Cl)c(C)c3)CC2)CC1", "note": "[Compound 352, 1-(4-chloro-3-methylphenyl)-4-[2-(4-ethylpiperazin-1-yl)-2-oxoethyl]piperazine]", "Ki": "< 1"},
      {"smiles": "Cc1cc(N2CCN(CC(=O)N3CCN(C(C)C)CC3)CC2)ccc1Cl", "note": "[Compound 353, 1-(4-chloro-3-methylphenyl)-4-[2-(4-isopropylpiperazin-1-yl)-2-oxoethyl]piperazine]", "Ki": "< 1"},
      {"smiles": "O=C(CN1CCN(c2ccc(-c3ccc(Cl)cc3)cc2)CC1)N1CCN(C2CCC2)CC1", "note": "[Compound 355, 1-(4′-chlorobiphenyl-4-yl)-4-[2-(4-cyclobutylpiperazin-1-yl)-2-oxoethyl]piperazine]", "Ki": "< 1"},
      {"smiles": "O=C(CN1CCN(c2ccc(Cl)cc2)CC1)N1CCN(C2CCC2)CC1", "note": "[Compound 356]", "Ki": "< 1"},
      {"smiles": "O=C(CN1CCN(c2ccc(Cl)cc2)CC1)N1CCN(C2CCCCC2)CC1", "note": "[Compound 357, 1-(4-chlorophenyl)-4-[2-(4-cyclohexylpiperazin-1-yl)-2-oxoethyl]piperazine]", "Ki": "< 1"},
      {"smiles": "O=C(CN1CCN(c2ccc(Cl)cc2)CC1)N1CCN(C2CCCC2)CC1", "note": "[Compound 358, 1-(4-chlorophenyl)-4-[2-(4-cyclopentylpiperazin-1-yl)-2-oxoethyl]piperazine]", "Ki": "< 1"},
      {"smiles": "CC(C)N1CCN(C(=O)CN2CCN(c3ccc(Cl)cc3)CC2)CC1", "note": "[Compound 360, 1-(4-chlorophenyl)-4-[2-(4-isopropylpiperazin-1-yl)-2-oxoethyl]piperazine]", "Ki": "< 1"},
      {"smiles": "CC(C)N1CCN(C(=O)CN2CCN(c3ccc(F)cc3)CC2)CC1", "note": "[Compound 361, 1-(4-fluorophenyl)-4-[2-(4-isopropylpiperazin-1-yl)-2-oxoethyl]piperazine]", "Ki": "< 1"},
      {"smiles": "CC(=O)c1cnc(N2CCN(CC(=O)N3CCN(C4CCC4)CC3)CC2)cn1", "note": "[Compound 362, 1-(5-{4-[2-(4-cyclobutylpiperazin-1-yl)-2-oxoethyl]piperazin-1-yl}pyrazin-2-yl)ethanone]", "Ki": "< 1"},
      {"smiles": "CC(=O)c1ccc(N2C(=O)C3(CCN(CC(=O)N4CCN(C5CCC5)CC4)CC3)c3ccccc32)nc1", "note": "[Compound 363, 1-(5-acetylpyridin-2-yl)-1′-[2-(4-cyclobutylpiperazin-1-yl)-2-oxoethyl]spiro[indole-3,4′-piperidin]-2(1H)-one]", "Ki": "< 1"},
      {"smiles": "COc1ccc(Cl)cc1-c1ccc(N2CCN(CC(=O)N3CCN(C4CCC4)CC3)CC2)cc1", "note": "[Compound 365, 1-(5′-chloro-2′-methoxybiphenyl-4-yl)-4-[2-(4-cyclobutylpiperazin-1-yl)-2-oxoethyl]piperazine]", "Ki": "< 1"},
      {"smiles": "COc1ccc(Cl)cc1N1CCN(CC(=O)N2CCN(C3CCC3)CC2)CC1", "note": "[Compound 366, 1-(5-chloro-2-methoxyphenyl)-4-[2-(4-cyclobutylpiperazin-1-yl)-2-oxoethyl]piperazine]", "Ki": "< 1"},
      {"smiles": "CC(=O)c1ccc(N2CCN(CC(=O)N3CCN(C4CCC4)CC3)CC2)nc1", "note": "[Compound 371, 1-(6-{4-[2-(4-cyclobutylpiperazin-1-yl)-2-oxoethyl]piperazin-1-yl}pyridin-3-yl)ethanone]", "Ki": "< 1"},
      {"smiles": "CC(=O)c1ccc(N2CCN(CC(=O)N3CCN(C4CCC4)CC3)CC2)nn1", "note": "[Compound 372, 1-(6-{4-[2-(4-cyclobutylpiperazin-1-yl)-2-oxoethyl]piperazin-1-yl}pyridazin-3-yl)ethanone]", "Ki": "< 1"},
      {"smiles": "CC(=O)c1ccc(N2CCN(CC(=O)N3CCN(C4CCCC4)CC3)CC2)nc1", "note": "[Compound 373, 1-(6-{4-[2-(4-cyclopentylpiperazin-1-yl)-2-oxoethyl]piperazin-1-yl}pyridin-3-yl)ethanone]", "Ki": "< 1"},
      {"smiles": "COc1cc(Br)c(CC(=O)N2CCN(CC(=O)N3CCN(C4CCC4)CC3)CC2)cc1OC", "note": "[Compound 378, 1-[(2-bromo-4,5-dimethoxyphenyl)acetyl]-4-[2-(4-cyclobutylpiperazin-1-yl)-2-oxoethyl]piperazine]", "Ki": "< 1"},
      {"smiles": "O=C(Cc1cc(Cl)ccc1Br)N1CCN(CC(=O)N2CCN(C3CCC3)CC2)CC1", "note": "[Compound 379, 1-[(2-bromo-5-chlorophenyl)acetyl]-4-[2-(4-cyclobutylpiperazin-1-yl)-2-oxoethyl]piperazine]", "Ki": "< 1"},
      {"smiles": "O=C(Cc1ccccc1Br)N1CCN(CC(=O)N2CCN(C3CCC3)CC2)CC1", "note": "[Compound 380, 1-[(2-bromophenyl)acetyl]-4-[2-(4-cyclobutylpiperazin-1-yl)-2-oxoethyl]piperazine]", "Ki": "< 1"},
      {"smiles": "O=C(Cc1c(F)cccc1Cl)N1CCN(CC(=O)N2CCN(C3CCC3)CC2)CC1", "note": "[Compound 382, 1-[(2-chloro-6-fluorophenyl)acetyl]-4-[2-(4-cyclobutylpiperazin-1-yl)-2-oxoethyl]piperazine]", "Ki": "< 1"},
      {"smiles": "COc1ccc(Br)cc1CC(=O)N1CCN(CC(=O)N2CCN(C3CCC3)CC2)CC1", "note": "[Compound 409, 1-[(5-bromo-2-methoxyphenyl)acetyl]-4-[2-(4-cyclobutylpiperazin-1-yl)-2-oxoethyl]piperazine]", "Ki": "< 1"},
      {"smiles": "O=C(CN1CCN(c2ccc(C(=O)N3CCCCCC3)cn2)CC1)N1CCN(C2CCC2)CC1", "note": "[Compound 415, 1-[(6-{4-[2-(4-cyclobutylpiperazin-1-yl)-2-oxoethyl]piperazin-1-yl}pyridin-3-yl)carbonyl]azepane]", "Ki": "< 1"},
      {"smiles": "CC(Oc1ccccc1Cl)C(=O)N1CCN(CC(=O)N2CCN(C3CCC3)CC2)CC1", "note": "(centres unmarked) [Compound 417, 1-[2-(2-chlorophenoxy)propanoyl]-4-[2-(4-cyclobutylpiperazin-1-yl)-2-oxoethyl]piperazine]", "Ki": "< 1"},
      {"smiles": "CC(Oc1cccc(Cl)c1)C(=O)N1CCN(CC(=O)N2CCN(C3CCC3)CC2)CC1", "note": "(centres unmarked) [Compound 418, 1-[2-(3-chlorophenoxy)propanoyl]-4-[2-(4-cyclobutylpiperazin-1-yl)-2-oxoethyl]piperazine]", "Ki": "< 1"},
      {"smiles": "O=C(CN1CCC(N2CCCCC2)CC1)N1CCN(C2CCC2)CC1", "note": "[Compound 421, 1′-[2-(4-cyclobutylpiperazin-1-yl)-2-oxoethyl]-1,4′-bipiperidine]", "Ki": "< 1"},
      {"smiles": "CC(C)N1C(=O)C2(CCN(CC(=O)N3CCN(C4CCC4)CC3)CC2)c2ccccc21", "note": "[Compound 422, 1′-[2-(4-cyclobutylpiperazin-1-yl)-2-oxoethyl]-1-isopropylspiro[indole-3,4′-piperidin]-2(1H)-one]", "Ki": "< 1"},
      {"smiles": "CN1C(=O)C2(CCN(CC(=O)N3CCN(C4CCC4)CC3)CC2)c2ccccc21", "note": "[Compound 423]", "Ki": "< 1"}
    ]}
  ]
}
